We go through 2 molecules from patent US20250032580A1, “USE OF ADNF POLYPEPTIDES IN THERAPY” (RAMOT AT TEL-AVIV UNIVERSITY LTD., priority 2021, published 2025).

Format in all cases: cell-based, mouse
Test [1] relates to differentiated N1E-115 cells. Briefly: FRAP of mCherry-Tau (Tau-MT interaction). The protocol:
(§1) Cell culture—Mouse neuroblastoma NIE-115 cells were maintained in Dulbecco's modified Eagle's medium, 10% fetal bovine serum, 2 mM glutamine and 100 U ml—1 penicillin, […] ml—1 streptomycin (Biological Industries, Beit Haemek, Israel). The cells were incubated in 95% air/5% CO2 in a humidified incubator at 37° C.
(§2) Cell differentiation and co-transfection of overexpression plasmids—Cultured NIE-115 cells were plated on 35 mm dishes (81156, 60μ-Dish, Ibidi, Martinsried, Germany) at a concentration of 1.25×10^4 cells per dish and then were differentiated with reduced fetal bovine serum (2%) and DMSO (1.25%) containing medium for 5 days before transfection. 48 hrs before experiments N1E-115 cells were co-transfected with 1 μg EB3-RFP or mCherry-Tau (3R) plasmid with or without 2 μg of plasmids, coding to GFP conjugated to full-length human ADNP, or ADNP carried mutations. 1:3 ratios between total amount of transfected DNA and transfection reagent were used according to manufacture guidance (Lipofectamine2000, Thermo Fisher Scientific, Waltham, MA, USA) in all subsequent experiments.
Fluorescence recovery after photobleaching (FRAP)—Differentiated NIE-115 cells were transfected with mCherry-Tau with or without GFP-conjugated to full-length ADNP or mutated ADNP, and imaged 48 hrs after transfection. An ROI for photobleaching was drowned in the proximal cell branches. mCherry-Tau was bleached with a […], and fluorescence recovery was collected within wavelengths of 610-650 nm. 80 images were taken every 0.74 sec immediately after bleaching. After FRAP imaging all samples were also treated with NAP in final concentrations of 10^−12 M, and after 4 hrs time-lapse imaging was done again under the same conditions. FRAP imaging for assessment difference between NAP and SKIP (SEQ ID NO: 21) activity was performed after an hour of ZnCl2 treatment (400 μM final concentration; Sigma, Rehovot, Israel) with or without NAP/SKIP (10^−12 M final concentration). Fluorescence signals were quantified with Fiji, obtained data were normalized with easyFRAP [82, 83] and FRAP recovery curves were fitted by a one-phase exponential association function by GraphPad Prism6 (GraphPad Software, Inc., La Jolla, CA, USA) while samples with R^2<0.9 were excluded.
Next, the effect of full-length/truncated ADNP forms with or without NAP treatment on Tau-MT interaction was examined by fluorescence recovery after photobleaching (FRAP) (FIGS. 8A-C). FRAP was performed with mCherry-tagged Tau protein (FIG. 8A). […] Therefore, the immobile mCherry-Tau fraction reflects the rate of Tau association with MTs.

Test [2] has as its system differentiated N1E-115 cells. Briefly: Live imaging of EB3 comet-like structures (MT dynamics). The settings on record: 10^−12 M, 4 hrs. The protocol: as §1, §2
Live Imaging—48 hrs after transfection, differentiated NIE-115 cells (expressing EB3-RFP with or without GFP-conjugated to full-length ADNP or mutated ADNP) were incubated at 37° C. with a 5% CO2/95% air mixture in a thermostatic chamber placed on the stage of a Leica TCS SP5 confocal microscope (objective 100× (PL Apo) oil immersion, NA 1.4). Time-lapse images were automatically captured 3 sec during 1 min, using the Leica LAS AF software. After imaging all samples were also treated with NAP (SEQ ID NO: 2) or SKIP (SEQ ID NO: 21) in final concentrations of 10^−12 M, and after 4 hrs time-lapse imaging was done again under the same conditions. Data was collected and analyzed by Imaris software.
To evaluate the effect of ADNP truncated proteins on MT dynamics time-lapse imaging of EB3 comet-like structures formed by RFP-tagged EB3 proteins that bind to MT plus-ends was performed. Two parameters of EB3 activity were used to assess MT dynamics—track length and track speed of EB3 comets, which reflect the length of freshly growing MTs and the speed of MT assembly, respectively. Furthermore, the present inventors aimed to determine whether NAP (10^−12 M for 4 hrs) could prevent the deleterious effect of ADNP mutations.

The test system of test [3] is N1E-115 cells. Briefly: Polymerized vs. soluble tubulin assay. The settings on record: zinc 400 μM, 4 h, peptide 10^−12 M. As for the experimental part: Polymerized vs. soluble tubulin assay—To quantify tubulin polymerization and Tau-MT association, a simple assay was performed as previously described. The cells grown to confluence in six-well plates were washed with MT buffer (80 mM PIPES pH 6.8, 1 mM MgCl^2, 2 mM EGTA, 5% Glycerol) and lysed at room temperature for 5 min through centrifugation (300 g), with 150 μl of MT buffer with 0.5% Triton X-100 to extract soluble (cytosolic) tubulin (S). The pelleted cells were rinsed once again with an equal volume of modified RIPA lysis buffer (50 mM Tris-HCL pH 7.4, 150 mM NaCl, 2 mM EGTA, 1% Triton X-100, 0.1% SDS, 0.1% sodium Deoxycholate) to collect the polymerized (cytoskeletal) tubulin (P). The cytosolic and cytoskeletal fractions were each mixed with sample buffer and heated at 95° C. for 5 min. An equal volume of each fraction was analyzed by immunoblotting with Tau, tubulin and actin antibodies, and the results following ECL development were quantified by densitometry (GelQuant.NET software provided by biochemlabsolutions(dot)com).
It is known that in the presence of extracellular zinc NAP protects MT against degradation by promoting Tau binding to the MT shaft. Polymerized vs. soluble tubulin assay was effected to compare protective activities of NAP and SKIP against MT degradation and Tau-MT dissociation (FIGS. 11F-G). After treatments with zinc (400 μM, 4 h) with and without NAP or SKIP (10^−12 M, 4 h) the cellular-tubulin pool was separated into polymerized and soluble tubulin fractions. The amount of Tau, tubulin, and actin was identified by immunoblotting (FIG. 11F), followed by densitometric quantification (FIG. 11G).

With `[Cl-].[Cl-].[Zn+2]` [zinc, ZnCl2, reference compound], in test [1] (400 μM, 1 h), the “Tau immobile fraction in comparison to non-treated control” value was “significantly attenuated”.
With SKIP, in test [2], the “Difference between effects of NAP and SKIP on EB3 track length and speed” value is “no significant differences”. In addition, the “EB3 track length and speed compared to non-treated control” value in test [2] (no ADNP plasmid) is “increased EB3 track length and speed”. For the same molecule, the “Efficacy in terms of MT-Tau interactions, as compared with NAP” value in test [1] (summary of results) is on record as “reduced efficacy”. Further, the “Tau immobile fraction under zinc” value in test [1] (zinc 400 μM, 1 h, together with peptide 10^−12 M) is on record as “prevented zinc adverse effect”. Also, in test [3], the “Protection against Tau dissociation from MTs” value is on record as “only NAP exhibited protection” and the “Protection of polymerized tubulin against zinc-induced decay” value was “protected against zinc-induced decay”.
